{
  "source": "patent US8062681B2",
  "about": "“Amino acid oligomer dietary supplement” (The Curators Of The University Of Missouri, priority 2006, dated 2011)",
  "test_system": "rumen fluid",
  "note": "Marks after values point to notes of the source that are not given here.",
  "data": [
    {"compound": "CSCCC(N)C(=O)O", "note": "(centres unmarked) [D, L Met, D,L Methionine]", "values": [
      {"measurement": "Supplemental Methionine Recovered", "value": "12.25^c %"},
      {"measurement": "MOEFF (microbial efficiency)", "setting": "continuous culture fermenters, .045 g/d supplement with 45 g/d soyhulls", "value": "9.11 grams of bacterial nitrogen per kilogram organic matter fermented"}
    ]}
  ]
}
